ChEMBL document CHEMBL6127136, “Discovery of 1-(Phenylsulfonyl)-1,2,3,4-tetrahydroquinoline Derivative as Orally Bioavailable and Safe RORγt Inverse Agonists for Potential Treatment of Rheumatoid Arthritis” (J Med Chem, 2024)
The source made the active and inactive calls. The calls are words filed in the database; no cut-off is given here.

Experiments:
[1] = AUC (0 to infinity) in male DBA/1 mouse at 20 mg/kg, po measured after 24 hrs by HPLC analysis; type: ADME, organism-based; conditions: in vivo
[2] = system: Mus musculus; assay: (§1) Antiinflammatory activity against imiquimod-induced psoriasis-like skin inflammation in Balb/c mouse model assessed as reduction in mononuclear cell infiltration in skin at 15 mg/kg, IG preadministered with IMQ for 3 days followed by compound administration from day 4 and measured on day 14 by H and E staining based analysis; type: functional, organism-based; conditions: time 11.0 day
[3] = Tmax in male DBA/1 mouse at 20 mg/kg, po measured after 24 hrs by HPLC analysis; type: ADME, organism-based; conditions: in vivo
[4] = system: Mus musculus; assay: (§2) Antiinflammatory activity against imiquimod-induced psoriasis-like skin inflammation in Balb/c mouse model assessed as decrease in IL-17A expression in skin preadministered with IMQ for 3 days followed by intragastric compound administration from day 4 and measured on day 14 by immunohistochemical analysis; type: functional, organism-based; conditions: dose 5-15 mg/kg, route ig, time 11.0 day
[5] = system: Mus musculus; assay: Antiinflammatory activity against imiquimod-induced psoriasis-like skin inflammation in Balb/c mouse model assessed as reduction in total psoriasis area preadministered with IMQ for 3 days followed by intragastric compound administration from day 4 and measured on day 14; type: functional, organism-based; conditions: dose 10-15 mg/kg, route ig, time 11.0 day
[6] = system: Mus musculus; assay: as §2, with “IL-23” for “IL-17A”; type: functional, organism-based; conditions: dose 5-15 mg/kg, route ig, time 11.0 day
[7] = system: Mus musculus; assay: Antiinflammatory activity against imiquimod-induced psoriasis-like skin inflammation in Balb/c mouse model assessed as reduction in IL-17F level in peripheral blood preadministered with IMQ for 3 days followed by intragastric compound administration from day 4 and measured on day 13 by ELISA; type: functional, organism-based; conditions: dose 5-15 mg/kg, route ig, time 10.0 day
[8] = system: Mus musculus; assay: Antiinflammatory activity against imiquimod-induced psoriasis-like skin inflammation in Balb/c mouse model assessed as attenuation of skin layer thickening at 15 mg/kg, IG preadministered with IMQ for 3 days followed by compound administration from day 4 and measured on day 14 by H and E staining based analysis; type: functional, organism-based; conditions: time 11.0 day
[9] = Toxicity in imiquimod-induced psoriasis-like skin inflammation Balb/c mouse model assessed as change in body weight at 5 to 15 mg/kg, IG preadministered with IMQ for 3 days followed by compound administration from day 4 and measured on day 14; type: organism-based; conditions: in vivo, po, 264 h, dose 5-15 mg/kg, time 11 day
[10] = system: HUVEC; assay: Antiproliferative activity against HUVEC cells assessed as inhibition of colony formation at 2 to 8 uM incubated for 7 days by crystal violet staining based light microscopic analysis; type: toxicity, cell-based; conditions: human, 168 h, dose 2-8 µM, time 7 day
[11] = Cmax in male DBA/1 mouse at 20 mg/kg, po measured after 24 hrs by HPLC analysis; type: ADME, organism-based; conditions: in vivo
[12] = molecular target: T1, Nuclear receptor ROR-gamma (Homo sapiens, UniProt P51449); assay: Inverse agonist activity at GAL4 DNA-binding domain fused RORgamma (unknown origin) transfected in HEK293T cells co-transfected with GAL4-promoter driven luciferase reporter gene assessed as inhibition of RORgammat transcription incubated for 18 to 20 hrs by plate reader analysis; type: cell-based
T1 sequence (P51449 whole entry): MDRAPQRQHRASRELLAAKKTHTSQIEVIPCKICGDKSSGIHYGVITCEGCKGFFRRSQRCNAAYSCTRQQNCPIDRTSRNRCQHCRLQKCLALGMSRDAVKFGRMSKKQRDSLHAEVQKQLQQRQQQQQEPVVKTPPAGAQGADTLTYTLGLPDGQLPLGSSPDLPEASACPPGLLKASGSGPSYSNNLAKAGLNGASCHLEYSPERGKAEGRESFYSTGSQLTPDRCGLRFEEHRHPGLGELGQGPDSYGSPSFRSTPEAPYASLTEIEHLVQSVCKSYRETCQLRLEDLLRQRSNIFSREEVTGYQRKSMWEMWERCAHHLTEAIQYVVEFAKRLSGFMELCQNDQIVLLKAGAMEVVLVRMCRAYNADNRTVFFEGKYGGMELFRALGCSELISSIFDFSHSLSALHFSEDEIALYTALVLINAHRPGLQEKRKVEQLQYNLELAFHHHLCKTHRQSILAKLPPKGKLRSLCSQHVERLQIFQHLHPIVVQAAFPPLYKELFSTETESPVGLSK

[13] = Half-life in male DBA/1 mouse at 20 mg/kg, po measured after 24 hrs by HPLC analysis; type: ADME, organism-based; conditions: in vivo
[14] = Clearance in male DBA/1 mouse at 5 mg/kg, iv measured after 24 hrs by HPLC analysis; type: ADME, organism-based; conditions: in vivo
[15] = Tmax in male DBA/1 mouse at 5 mg/kg, iv measured after 24 hrs by HPLC analysis; type: ADME, organism-based; conditions: in vivo
[16] = Cmax in male DBA/1 mouse at 5 mg/kg, iv measured after 24 hrs by HPLC analysis; type: ADME, organism-based; conditions: in vivo
[17] = system: Mus musculus; assay: Antiinflammatory activity against imiquimod-induced psoriasis-like skin inflammation in Balb/c mouse model assessed as reduction in IL-23 level in peripheral blood preadministered with IMQ for 3 days followed by intragastric compound administration from day 4 and measured on day 13 by ELISA; type: functional, organism-based; conditions: dose 5-15 mg/kg, route ig, time 10.0 day
[18] = Oral bioavailability in male DBA/1 mouse at 20 mg/kg measured after 24 hrs by HPLC analysis; type: ADME, organism-based; conditions: in vivo
[19] = system: Mus musculus; assay: as §1, with “inflammatory” for “mononuclear”; type: functional, organism-based; conditions: time 11.0 day
[20] = system: Mus musculus; assay: Antiinflammatory activity against imiquimod-induced psoriasis-like skin inflammation in Balb/c mouse model assessed as reduction in IL-17A level in peripheral blood preadministered with IMQ for 3 days followed by intragastric compound administration from day 4 and measured on day 13 by ELISA; type: functional, organism-based; conditions: dose 5-15 mg/kg, route ig, time 10.0 day
[21] = AUC (0 to infinity) in male DBA/1 mouse at 5 mg/kg, iv measured after 24 hrs by HPLC analysis; type: ADME, organism-based; conditions: in vivo
[22] = Half-life in male DBA/1 mouse at 5 mg/kg, iv measured after 24 hrs by HPLC analysis; type: ADME, organism-based; conditions: in vivo
[23] = system: Mus musculus; assay: Antiinflammatory activity against imiquimod-induced psoriasis-like skin inflammation in Balb/c mouse model assessed as reduction in total psoriasis severity index preadministered with IMQ for 3 days followed by intragastric compound administration from day 4 and measured on day 14; type: functional, organism-based; conditions: dose 10-15 mg/kg, route ig, time 11.0 day
[24] = system: Mus musculus; assay: (§3) Antiinflammatory activity against imiquimod-induced psoriasis-like skin inflammation in Balb/c mouse model assessed as decrease in IL-17F expression in skin at 15 mg/kg, IG preadministered with IMQ for 3 days followed by compound administration from day 4 and measured on day 14 by immunohistochemical analysis; type: functional, organism-based; conditions: time 11.0 day
[25] = AUC (0 to t) in male DBA/1 mouse at 5 mg/kg, iv measured after 24 hrs by HPLC analysis; type: ADME, organism-based; conditions: in vivo
[26] = system: Mus musculus; assay: as §1, with “decrease” for “reduction”, “dermal telangiectasia” for “mononuclear cell infiltration in skin”; type: functional, organism-based; conditions: time 11.0 day
[27] = system: Mus musculus; assay: as §2, with “IL-17F” for “IL-17A”; type: functional, organism-based; conditions: dose 5-15 mg/kg, route ig, time 11.0 day
[28] = AUC (0 to t) in male DBA/1 mouse at 20 mg/kg, po measured after 24 hrs by HPLC analysis; type: ADME, organism-based; conditions: in vivo
[29] = system: Mus musculus; assay: as §3, with “IL-17A” for “IL-17F”; type: functional, organism-based; conditions: time 11.0 day
[30] = system: HeLa; assay: Antiproliferative activity against human HeLa cells assessed as inhibition of colony formation at 2 to 8 uM incubated for 7 days by crystal violet staining based light microscopic analysis; type: toxicity, cell-based; conditions: 168 h, dose 2-8 µM, time 7 day
[31] = system: Mus musculus; assay: as §3, with “IL-23” for “IL-17F”; type: functional, organism-based; conditions: time 11.0 day
[32] = molecular target: T1, Nuclear receptor ROR-gamma; assay: Inverse agonist activity at N-terminal 6-His-tagged/APC-labeled human RORgammat LBD extracted from Escherichia coli assessed as inhibition of europium-labeled SRC-1 recruitment incubated for 3 hrs by TR-FRET analysis

AUC(0-inf) [1]: 1960 ng·h/mL
Tmax [3]: 0.5 h
Cmax [11]: 485 ng/mL
IC50 [12]: 21 nM
half-life [13]: 4.67 h
clearance [14]: 81.9 mL/min/kg
Tmax [15]: 4.98 min
Cmax [16]: 1210 ng/mL
bioavailability [18]: 48.1%
AUC(0-inf) [21]: 1020 ng·h/mL
half-life [22]: 3.87 h
AUC(0-t) at 24 h [25]: 995 ng·h/mL
AUC(0-t) at 24 h [28]: 1890 ng·h/mL
IC50 [32]: 3.5 nM
SMILES: CCC1CCc2cc(C(C)C)ccc2N1S(=O)(=O)c1ccc(OCC2CCOCC2)c(CO)c1 (racemic)
Activity [2]: Active
Activity [4]: Dose-Dependent Effect
Activity [5]: Dose-Dependent Effect
Activity [6]: Dose-Dependent Effect
Activity [7]: Dose-Dependent Effect
Activity [8]: Active
Activity [9]: Non-Toxic
Activity [10]: Non-Toxic
Activity [17]: Dose-Dependent Effect
Activity [19]: Active
Activity [20]: Dose-Dependent Effect
Activity [23]: Dose-Dependent Effect
Activity [24]: Active
Activity [26]: Active
Activity [27]: Dose-Dependent Effect
Activity [29]: Active
Activity [30]: Non-Toxic
Activity [31]: Active
